# Measurements taken from patent US20110294726A1, “ANTIBIOTIC THERAPY TO REDUCE THE LIKELIHOOD OF DEVELOPING POST-INFECTIOUS IRRITABLE BOWEL SYNDROME” (CEDARS-SINAI MEDICAL CENTER, priority 2009, published 2011).
# Tests used:
# C. jejuni 81-176 [1] = experiment: Tracking the acute colonization with C. jejuni in stool of gavaged rats; assay type: in vivo, Male Sprague-Dawley rats
# Method: Male Sprague-Dawley rats (n=108) (200g) were quarantined for 10 days. Subsequently, fresh stool was collected by stroking the anus. Stool was cultured for C. jejuni on Campylobacter agar (BD Diagnostics, Franklin Lakes, N.J.). This was conducted to confirm the absence of infection or colonization of animals with C. jejuni prior to starting the study. […] In the first group (n=54), the rats were gavaged with 1 mL of a 5% solution of bicarbonate. This was given to acutely reduce gastric acidity. Subsequently, the rats were gavaged with a 1 mL suspension of 10^8 cfu/mL C. jejuni 81-176 in Campylobacter broth (C+/R− group). In the second group (n=54), the rats were gavaged with a 1 mL solution of rifaximin (200 mg) (C+/R+ group). The following day, the C+/R+ group received 3 sequential gavages. The first was another 1 mL dose of rifaximin. One hour later, they were gavaged with a 1 mL solution of 5% bicarbonate followed by a third gavage consisting of a 1 mL suspension of 10^8 cfu/mL C. jejuni 81-176 in Campylobacter broth. The following day, the C+/R+ group received a third and final gavage of 200 mg of rifaximin. After completion of the gavage, fresh stool was collected daily from all rats (both groups) and cultured for the presence of C. jejuni on Campylobacter agar. The number of days to first detectable C. jejuni in stool was recorded. Once colonization was noted, daily stool was cultured until 2 consecutive days with no detectable C. jejuni was observed. This was recorded as the time to C. jejuni clearance. In the post-infectious phase, the time to initial colonization, time for clearance and total duration of shedding were determined and compared between the C+/R− and C+/R+ groups. This was compared by Wilcoxon rank-sum test.
# C. jejuni 81-176 [2] = experiment: Determination of a post-infectious phenotype (stool form, % stool weight) 3 months after C. jejuni clearance; assay type: in vivo, Male Sprague-Dawley rats
# Method: Male Sprague-Dawley rats (n=108) (200g) were quarantined for 10 days. Subsequently, fresh stool was collected by stroking the anus. Stool was cultured for C. jejuni on Campylobacter agar (BD Diagnostics, Franklin Lakes, N.J.). This was conducted to confirm the absence of infection or colonization of animals with C. jejuni prior to starting the study. […] In the first group (n=54), the rats were gavaged with 1 mL of a 5% solution of bicarbonate. This was given to acutely reduce gastric acidity. Subsequently, the rats were gavaged with a 1 mL suspension of 10^8 cfu/mL C. jejuni 81-176 in Campylobacter broth (C+/R− group). In the second group (n=54), the rats were gavaged with a 1 mL solution of rifaximin (200 mg) (C+/R+ group). The following day, the C+/R+ group received 3 sequential gavages. The first was another 1 mL dose of rifaximin. One hour later, they were gavaged with a 1 mL solution of 5% bicarbonate followed by a third gavage consisting of a 1 mL suspension of 10^8 cfu/mL C. jejuni 81-176 in Campylobacter broth. The following day, the C+/R+ group received a third and final gavage of 200 mg of rifaximin. After C. jejuni clearance was determined, the rats were housed for an additional 3 months (90 days). At 90 days, fresh stool was collected for 3 consecutive days. The stool was graded for consistency. To do this, a modified Bristol-like stool score was used. In this score, stool was graded as normal (1), soft and poorly formed (2), or watery (3). The stool was then weighed and air dried for 5 days followed by oven drying at 160° C. for 1 hour. The stool was reweighed and a % stool wet weight was determined. After completion of the study, the rats were euthanized by CO2 asphyxiation, weighed, and a laparotomy was performed. During the laparotomy, predefined segments of duodenum, jejunum, ileum, left colon, and rectum were resected, as previously described (12). Subsequently, the contents of each segment were cultured for the presence of C. jejuni. At the end of 3 months, the stool form for 3 days was averaged and then the two groups were compared. In another analysis, the number of days with normal stool in 3 days was determined and compared between groups. Finally, the variance in stool form over 3 days was also determined and compared between groups. The comparison was done by Wilcoxon rank-sum test.
# Shigella = conditions: humans, recent study (16); cited from earlier work
structure (smiles),measurement,setting,value
CO[C@H]1/C=C/O[C@@]2(C)Oc3c(C)c(O)c4c(O)c(c5c(nc6cc(C)ccn65)c4c3C2=O)NC(=O)/C(C)=C\C=C\[C@H](C)[C@H](O)[C@@H](C)[C@@H](O)[C@@H](C)[C@H](OC(C)=O)[C@@H]1C [rifaximin],Longest colonization,C. jejuni 81-176 [1]; C+/R+ group,21 days
same,Rats with at least one day of detectable C. jejuni in stool (percent),"C. jejuni 81-176 [1]; C+/R+ group of 54 rats, P=0.016 vs C+/R−",98%
same,Rats with at least one day of detectable C. jejuni in stool (number),"C. jejuni 81-176 [1]; of 54 rats in the C+/R+ group, P=0.016 vs C+/R−",53 rats
same,Detection of C. jejuni in stool in the acute phase (in words),"C. jejuni 81-176 [1]; rifaximin prophylaxis, rats",did not prevent C. jejuni from being detected in stool
same,Time to first detectable C. jejuni,"C. jejuni 81-176 [1]; stool culture, number of days after gavage, rifaximin 200 mg gavage on 3 days around inoculation, P<0.0001 vs C+/R−",1.3 ± 0.4
same,Average % of stool dry weight,"C. jejuni 81-176 [2]; 3 months after clearance, 3 day average, P NS",61.1 +/− 3.8%
same,Daily variability of Dry Weight,"C. jejuni 81-176 [2]; 3 months after clearance, over 3 days, P<0.01",4.1 +/− 2.3
same,"Number of bowel movements normal in form out of 3 days (FIG. 2, in words)","C. jejuni 81-176 [2]; C+/R+ versus C+/R−, 3 months after clearance",closer to having perfectly normal bowel function
same,Daily Variability of Stool Consistency,"C. jejuni 81-176 [2]; over 3 days, 3 months after clearance, P<0.01",.24 +/− 0.5
same,Long term effects of C. jejuni on the bowel (in words),"C. jejuni 81-176 [2]; rifaximin prophylaxis, stool form and % wet weight",reduced the long term effects of C. jejuni on the bowel
same,Average Stool Consistency (Based on Bristol Stool Scale),"C. jejuni 81-176 [2]; score 1 normal, 2 soft and poorly formed, 3 watery, 3 day average, 3 months after clearance, P<0.00001",1.1 +/− 0.3
same,Prevention of illness by prophylaxis of a Shigella infection (in words),Shigella,able to prevent illness
